According to patent US20240172756A1, “ORGANOANTIMONY(V) C[…] AND METHODS OF PRODUCTION AND USE THEREOF” (priority 2021, published 2024):
Values after ≈ are worked out from the molar mass of the structure shown.

Key:
Cryptococcus neoformans [1] = assay: MIC assay, C. neoformans; format: cell-based; conditions: Table 1
Method: (§1) To determine the antifungal properties of the two groups of Sb(V) cyanoximaes, Cryptococcus neoformans and Candida albicans, both of which are deadly human pathogens, were tested.
(§2) MIC of the 3rd generation compounds, as well as complete MIC measurements for the 2nd generation Sb(V) compounds, are determined. A dilution assay in a 96-well-plate format, the gold standard for measuring MICS recommended by the Clinical Laboratory Standards Institute (CLSI), is utilized. Prior to plate inoculation, bacterial cultures of P. aeruginosa PAO1, S. aureus NRS70, E. foecium CC17, and E. coli S17 are grown in Mueller Hinton Broth (MHB) to middle log phase as determined by the individual growth curves and diluted to obtain absorbance at 600 nm of 0.1. These normalized cultures are diluted 1:100 using MHB and inoculated into the fresh medium with serially diluted Sb(V) compounds in 96-well plates. The plates are incubated for 24 h at 37° C. For fungal pathogens, cultures of Cryptococcus neoformans strain H99 and Candida albicans strain SC5314 are grown to stationary phase in YPD medium for 18 h at 30° C. Following incubation, fungal cells are centrifuged, washed three times with PBS, and then counted with trypan blue exclusion. Each compound is screened using a microdilution assay with 0.5×10^3 fungal cells in RPMI-MOPS medium at 35° C. for 48 h. Following incubations for bacterial or fungal pathogens, the OD600 is measured using a Biotek Synergy HT microtiter plate reader ([…].). The MIC is defined as the lowest concentration that inhibits growth. An aliquot from the clear wells from the MIC assay is plated on agar to determine minimum bactericidal concentration (MBC) or minimum fungicidal concentration (MFC). Each experiment is based on at least three biological replicates and repeated for consistency. The MIC and MBC for each compound is compared to those obtained for clinically applied antibiotics/antifungals. For bacterial pathogens, the corresponding antibiotics, such as tobramycin (P. aeruginosa), trimethoprim (S. aureus), gentamicin (E. coli) and ampicillin (E. foecium), are used. For fungal pathogens, the data is compared to the antifungal drugs Amphotericin B and Caspofungin for C. neoformans and C. albicans, respectively, by using the CLSI method.
(§3) Second, the compounds were dissolved in DMSO to […], and their minimal inhibitory concentration (MIC) was determined against C. neoformans and C. albicans. Starting concentration used was 100 μg/ml, and then diluted 1:2.
(§4) MIC assays: The MIC assay protocol utilized for determination of the effects of various organoantimony(V) cyanoximate compounds in various bacteria is shown in FIG. 16. Each solubilized in DMSO at 5 mg/ml, starting concentration is 100 μg/ml. Error bars represent standard error of the mean (if none, the values were identical in each experiment). Untested compounds have no bar. Bars reaching 100 μg/ml were not considered to have antifungal activity.

Escherichia coli = assay: MIC in liquid culture, E. coli; format: cell-based
Method: (§5) To determine the antimicrobial potential of the two generations (G1—based on SbPh4-core, and G2—based on SbMe3-core) of newly synthesized Sb(V) cyanoximates, several representative compounds were first selected and their antimicrobial properties tested by using disk diffusion assays, The minimal inhibitory concentrations (MIC) of selected compounds were also determined in liquid cultures. Three bacterial and two fungal pathogens were used as target microorganisms. Bacterial pathogens included Gram-negative Pseudomonas aeruginosa and Gram-positive Staphylococcus aureus, representing the ESKAPE group of human pathogens known for their high virulence and antibiotic resistance.
as §2
(§6) Two different types of antimicrobial studies were performed: 1) paper disk studies during growth on solid media; and 2) MIC determination during growth in liquid media. […] Antifungal disk assays concluded that Sb(Ph)4 (ECO) was effective against Cryptococcus neoformans and Candida albicans. […] For MIC assays, Sb(Ph)4 (MCO), the Sb(V) cyanoximate, was tested, along with the free cyanoximes H(MCO), H(ECO), and Na[H(ACO)2].
as §4

Candida albicans [2] = assay: MIC assay, C. albicans; format: cell-based; conditions: Table 1
Method: as §1, §2, §3, §4

Pseudomonas aeruginosa = assay: MIC in liquid culture, P. aeruginosa; format: cell-based
Method: as §5, §2, §6, §4

Cryptococcus neoformans [3] = assay: Antifungal disk diffusion assay, C. neoformans; format: cell-based; conditions: solid compound on paper disk
Method: as §1
(§7) First, solid state powder compounds were deposited on paper disks and tested against two fungi: Cryptococcus neoformans and Candia albicans. Each experiment was conducted in triplicate with each compound at each concentration of deposited solid compound. The control was a blank paper (100% cotton disk).
(§8) Disk diffusion assays: No inhibition of Cryptococcus neoformans or Candida albicans for the following organoantimony(V) cyanoximate compounds at any concentration (S, ×2, ×4): H(ACO), H(ECO), H(MCO).

Staphylococcus aureus = assay: MIC in liquid culture, S. aureus; format: cell-based
Method: as §5, §2, §6, §4

Candida albicans [4] = assay: Antifungal disk diffusion assay, C. albicans; format: cell-based; conditions: solid compound on paper disk
Method: as §1, §7, §8

[5] = test system: Staphylococcus aureus MRSA; assay: Broth dilution assay, S. aureus MRSA; format: cell-based; conditions: multi-drug resistant strain, FIG. 20
Excerpt: As shown in FIGS. 20-21, compounds containing Sb display higher bactericidal activity against Gram positive Staphylococcus aureus (FIG. 20) than Gram negative E. coli (FIG. 21). […] In addition, 25-40% reduction of growth was also observed for Sb(Ph4)Br, Sb(Ph4)ECO, Sb(Ph4)ACO, and Sb(Ph4)TCO against Gram negative E. coli (FIG. 21).

Cryptococcus neoformans [6] = conditions: reference value; organism not given; cited from earlier work

Compound | MIC, C. neoformans (Cryptococcus neoformans [1]) [µg/mL] | MIC, E. coli (Escherichia coli; Table 1) [µg/mL] | antimicrobial effect (Escherichia coli; strain S17, paper disk and MIC studies) | MIC, C. albicans (Candida albicans [2]) [µg/mL] | MIC, P. aeruginosa (Pseudomonas aeruginosa; Table 1) [µg/mL] | antimicrobial effect (Pseudomonas aeruginosa; strain PAO1, paper disk and MIC studies) | antifungal activity / zone of inhibition in disk assay (Cryptococcus neoformans [3]) | antimicrobial effect (Staphylococcus aureus; Methicillin-resistant strain NRS70, paper disk and MIC studies) | MIC, S. aureus (Staphylococcus aureus; Table 1) [µg/mL] | antifungal activity / zone of inhibition in disk assay (Candida albicans [4]) | MIC (minimum inhibitory concentrations) [5] [µg/mL] | bactericidal activity [5] | MIC concentration (for reference) (Cryptococcus neoformans [6]) [µg/mL]
N#CC(=N[O][Sb]([c]1ccccc1)([c]1ccccc1)([c]1ccccc1)[c]1ccccc1)C(N)=O [SbPh4ACO] | 18.8 | 100 | significant antimicrobial effect | 15.6 | 100 | significant antimicrobial effect | effective | significant antimicrobial effect | 100 | only effective at inhibition of Cryptococcus neoformans | 100 | significant bactericidal activity | –
C[C@@H]1[C@H](O)[C@@H](C)/C=C/C=C/C=C/C=C/C=C/C=C/C=C/[C@H](O[C@@H]2O[C@H](C)[C@@H](O)[C@H](N)[C@@H]2O)C[C@@H]2O[C@](O)(C[C@@H](O)C[C@@H](O)[C@H](O)CC[C@@H](O)C[C@@H](O)CC(=O)O[C@H]1C)C[C@H](O)[C@H]2C(=O)O [Amphotericin B] | – | – | – | – | – | – | – | – | – | – | – | – | 0.5 (≈ 0.541 µM)
